The conditions of data set [1]: rat; for therapeutische Index (Q = LD₅₀/ED₂₀): acute test, intravenous injection.
The subject of data set [2] is isoprenalininduzierten Glykogenolyse. Description: Isoprenaline ischaemia, rat, i.v. and p.o. (heart glycogen content). It counts as in vivo, Ratte. The settings on record: mean of n = 10. As to the method:
Der Myokardschutz durch verschiedene Verbindungen der allgemeinen Formel 1 wurde nach i.v. und p.o. Applikation der Verbindungen am Modell der Isoprenalinischämie der Ratte geprüft. Die für diese Untersuchungen verwendete Methode erfaßt die Veränderungen des Glykogengehaltes im Herzgewebe unter Isoprenalin und dessen Beeinflussung durch Testsubstanzen. Isoprenalin wurde dabei intraperitoneal in Dosis von 5 mg/kg verabfolgt. Die i.v. Injektion der Prüfstoffe erfolgte unmittelbar vor der Isoprenalingabe, die orale Applikation 30 min davor. Als Versuchstiere wurden männliche Wistarratten (Körpermasse 200-250 g) eingesetzt. Einige der Verbindungen zeigten eine auffallende myokardprotektive Wirksamkeit. […] Die nach i.v.- bzw. p.o.-Applikation aus je n = 10 Tieren pro Dosis beobachteten Hemmwerte (Mittelwerte) gegenüber der Isoprenalininwirkung sind in Tabelle 8 aufgeführt. Tabelle 8

Another data set deals with Koronararterienokklusion. Description: Coronary artery occlusion, rat, i.v. (early-phase arrhythmias). The format is in vivo, Ratte. The settings on record: for Überlebensrate n. 20 min: 2 . 10⁻⁵ mol/kg i.v. 3 min before occlusion, control 33; for Normaler Sinusrhythmus / Tod durch Bradyk. / Auftreten von Arrhythmien VF / Auftreten von Arrhythmien VT / Auftreten von Arrhythmien andere: 2 . 10⁻⁵ mol/kg i.v.; for Normaler Sinusrhythmus: control 0; for Tod durch Bradyk.: control 30; for Auftreten von Arrhythmien VF: control 59; for Auftreten von Arrhythmien VT / Auftreten von Arrhythmien andere: control 82. The procedure: Die Untersuchungen zur Beeinflussung der Arrhythmien in der Frühphase nach Koronarokklusion erfolgten an männlichen Wistarratten (Körpermasse 200-250 g) in Pentobarbitalnarkose. Nach Ligatur der linken Koronararterie wurden die Überlebensrate sowie das Auftreten verschiedener Arrhythmieformen innerhalb 20 min nach Okklusion bewertet. Für die überlebenden Tiere erfolgten zusätzlich die Bestimmung des Zeitpunktes des Einsetzens der Arrhythmien und deren Dauer in min sowie die Zahl der ventrikulären Extrasystolen. Das Arrhythmiegeschehen in der Frühphase nach Ligatur wurde von einer Reihe Verbindungen der allgemeinen Formel 1 nach i.v.-Injektion im positiven Sinne beeinflußt. Beispielsweise wirken (Z)- bzw. (E)-2-Amino-5-chlorbenzophenonamidinohydrazonacetat (Beispiel 21 bzw. 32) dosisabhängig und stark protektiv nach i.v. Gabe (3 min vor Okklusion) von 1 . 10⁻⁵ und 2,1 . 10⁻⁵mol/kg. Die an der Aconitinarrhythmie gefundene gute antiarrhythmische Wirkung wurde damit an der Okklusion bestätigt, was durch die in Tabelle 7 zusammengestellten Ergebnisse dokumentiert werden soll. TABELLE 7

Data set [3] in a line: Toxicology, repeated oral dosing, rat. The settings on record: per os, repeated administration.
A further data set relates to Infarktgröße. Description: Infarct size determination (p-NBT), rat, i.v. It counts as in vivo, Ratte. The note with it: for Hemmung der Infarktgröße x %: significant. From the text:
Die Bestimmung der Herzinfarktgröße ist ein wichtiger Parameter zum Nachweis antiischämischer Wirkqualitäten für eine Substanz. Die hier angewendete markohistochemische Infarktgrößenbestimmung durch Inkubation mit p-Nitroblautetrazoliumsalz (p-NBT) beruht auf einem Dehydrogenasenachweis, wobei p-NBT als Wasserstoffakzeptor dient und die damit verbundene Reduktion des Salzes zu einer Farbänderung desselben führt. Die Beeinflussung der Größe des ischämischen Areals - die Ischämie wurde durch Ligatur der linken Koronararterie männlicher Wistarratten (Körpermasse 200-250 g) erzeugt - wurde nach i.v. Applikation (3 min vor Okklusion) einiger Verbindungen der allgemeinen Formel 1 untersucht. Die hier erhobenen Befunde spiegeln eindeutig die myokardprotektive Wirkkomponente dieser Verbindungen wieder. […] (Beispiel 21) bzw. das (E)-/(Z)-2-Amino-5-chlorbenzophenon-N-phenylamidinohydrazonnitrat [B] (Beispiel 3) wurden die in Tabelle 9 wiedergegebenen Resultate erhalten. TABELLE 9

The next data set has as its system g-Strophantinarrhythmie. Description: g-Strophanthin arrhythmia, guinea pig, i.v. The format is in vivo, Meerschweinchen. The procedure:
Die Methode beruht auf der Erzeugung ventrikulärer Arrhythmien durch g-Strophantin, das männlichen Meerschweinchen in Urethannarkose (Körpermasse 300-350 g) in der Dosierung von 30 µg/kg/min über die Vena jugularis infundiert wurde. Bewertungskriterien sind hierbei die am EKG unter g-Strophantin zu beobachtenden ersten Extrasystolen sowie der Eintritt der Asystolie. Die Verzögerung des Auftretens dieser Ereignisse unter Substanzgabe wird berechnet und ist als Maß der antiarrhythmischen Effektivität zu werten.

Data set [4] can be described thus: Clinical trial stage I, intravenous, man.
Data set [5] is described as follows: Toxicology, repeated oral dosing, minipig. The settings on record: per os, repeated administration.
In data set [6] the test system is schnellen Na⁺-Einwärtsstromes. Put plainly: Voltage clamp on isolated adult rat heart cells.
Setting [7] is: 5 . 10⁻⁷ mol/kg i.v., significant vs control.

Experimental findings from patent publication EP0433526A1, “Medicine for the treatment of heart-circulatory illnesses, of arrhythmics in particular” (Richter, Peter, Prof. Dr.sc.nat., priority 1989, dated 1991) are described below.

In the case of `CC[C@H]1C2C[C@H]3[C@@H]4N(C)c5ccccc5[C@]45C[C@@H]([C@@H]2[C@H]5O)[N@@+]3(CC(O)CN(CC)CC)[C@@H]1O` (some centres unmarked) [Tachmalcor], in data set [1], the “therapeutische Index (Q = LD₅₀/ED₂₀)” value is on record as 25,5.

`CCOc1ccccc1OCC(O)CNCCNCC(O)COc1ccccc1OCC` (centres unmarked) [Falirythmin]: the “therapeutische Index (Q = LD₅₀/ED₂₀)” value in [1] is reported as 11,5.

For the compound `CCOC(=O)Nc1ccc2c(c1)N(C(=O)CCN1CCOCC1)c1ccccc1S2` [Etmozin], the “therapeutische Index (Q = LD₅₀/ED₂₀)” value in [1] was 1,8.

On to “(Z) -2-Amino-5-chlorbenzophenonamidinohydrazonacetat [Beispiel 21]”, for which the “x % Hemmung” value in data set [2] (intravenös, 1,0 . 10⁻⁵ mol/kg) was 48,7%; in data set [2] (intravenös, 1,5 . 10⁻⁵ mol/kg), 37,6%; in [2] (intravenös, 3,2 . 10⁻⁵ mol/kg), 45,0%; in data set [2] (intravenös, 3,2 . 10⁻⁶ mol/kg), 5,9%; in [2] (intravenös, 4,6 . 10⁻⁶ mol/kg), 26,7%; in data set [2] (intravenös, 5,0 . 10⁻⁵ mol/kg) it was 69,6%. In addition, the “x % Hemmung” value is recorded as 25,6% in data set [2] (peroral, 1,0 . 10⁻⁴ mol/kg); 81,4% in data set [2] (peroral, 1,9 . 10⁻⁴ mol/kg); 71,4% in [2] (peroral, 3,7 . 10⁻⁴ mol/kg); 85,3% in [2] (peroral, 5,0 . 10⁻⁴ mol/kg); 37,2% in data set [2] (peroral, 7,2 . 10⁻⁵ mol/kg, 30 min before isoprenaline). Also, the “Überlebensrate n. 20 min” value in the data set on Koronararterienokklusion is 70 s %. Besides, the “Normaler Sinusrhythmus” value in the data set with Koronararterienokklusion came to 26 s %. Besides, the “Tod durch Bradyk.” value in the data set with Koronararterienokklusion was determined as 25 ns %. Further, the “Auftreten von Arrhythmien VF” value in the data set on Koronararterienokklusion came out at 8 s %. Moreover, in the data set with Koronararterienokklusion, the “Auftreten von Arrhythmien VT” value is 13 s %. For the same compound, the “Auftreten von Arrhythmien andere” value in the data set with Koronararterienokklusion is 54 ns %. Also, the “Dosen als gut verträglich eingeschätzt” value in [3] amounted to 25 mg/kg; in data set [5], 30 mg/kg. Further, the “ischämisches Gewebe x %” value with Infarktgröße (2 . 10⁻⁵ mol/kg i.v. 3 min before occlusion, control 35,0) is 15,2%. Also, in the data set on Infarktgröße (2 . 10⁻⁵ mol/kg i.v.), the “Hemmung der Infarktgröße x %” value is reported as 56,6 s %. Also, the “Verzögerung des Auftretens der ersten Extrasystolen” value in the data set on g-Strophantinarrhythmie (6,25 . 10⁻⁷ mol/kg i.v. 5 min before g-strophanthin infusion, significant) turned out to be 28%. The “Dosierung, ab der die antiarrhythmische Aktivität ausreichend erscheint” value in data set [4] was ≥ 0,25 mg/kg. Besides, the “Dosis, bei der die antiarrhythmische Aktivität beginnt” value in [4] is 0,06 mg/kg. The “therapeutische Index (Q = LD₅₀/ED₂₀)” value in [1] was 40,0. For the same compound, the “therapeutische Index Qp.o.” value in data set [1] (single oral administration) was 74,3. For the same compound, in data set [6], the “schneller Na⁺-Einwärtsstrom” value is “Hemmung”.

Regarding `Cl.N=C(N)N/N=C(\c1ccccc1)c1cc(Cl)ccc1N` [Beispiel 30, (E)-2-Amino-5-chlorbenzophenonamidinohydrazonhydrochlorid], in the data set on g-Strophantinarrhythmie (1,25 . 10⁻⁶ mol/kg i.v.), the “Verzögerung des Eintritts der ersten Extrasystolen” value amounted to 33%.

With `N=C(NN=C(c1ccccc1)c1cc(Cl)ccc1N)Nc1ccccc1.O=[N+]([O-])O` [Beispiel 3, (E)-/(Z)-2-Amino-5-chlorbenzophenon-N-phenylamidinohydrazonnitrat], the “normalen Sinusrhythmus” value in the data set with Koronararterienokklusion (5 . 10⁻⁷ mol/kg i.v.) came to 50%. In the data set on Koronararterienokklusion (setting [7]), the “Auftreten verschiedener Arrhythmieformen (VF)” value was 10%, the “Auftreten verschiedener Arrhythmieformen (VT)” value came to 30%, the “Auftreten verschiedener Arrhythmieformen (andere)” value turned out to be 50% and the Überlebensrate is on record as 80%. The “ischämisches Gewebe x %” value in the data set with Infarktgröße (1 . 10⁻⁷ mol/kg i.v. 3 min before occlusion, control 46,1) was 21,0%. In the data set with Infarktgröße (1 . 10⁻⁷ mol/kg i.v.), the “Hemmung der Infarktgröße x %” value is given as 54,4 s %. Besides, the “antiarrhythmische Wirkung gegenüber der g-strophantininduzierten Extrasystolie” value in the data set with g-Strophantinarrhythmie (1 . 10⁻⁶ mol/kg i.v.) was “+19%”. For the same compound, the “antiarrhythmische Wirkung gegenüber der g-strophantininduzierten Extrasystolie” value in the data set on g-Strophantinarrhythmie (2,10 . 10⁻⁶ mol/kg i.v.) is given as “+35%”.

In the case of “(E)-2-Amino-5-chlorbenzophenonamidinohydrazonacetat [Beispiel 32]”, in the data set on Koronararterienokklusion, the “Überlebensrate n. 20 min” value worked out at 71 s %, the “Normaler Sinusrhythmus” value is 46 s %, the “Tod durch Bradyk.” value was 19 ns % and the “Auftreten von Arrhythmien VF” value turned out to be 8 s %. Besides, in the data set with Koronararterienokklusion, the “Auftreten von Arrhythmien VT” value is 13 s % and the “Auftreten von Arrhythmien andere” value is recorded as 54 ns %.

As for `CC[C@H]1[C@@H]2C[C@H]3[C@@H]4N(C)c5ccccc5[C@]45C[C@@H]([C@@H]2[C@H]5O)N3[C@@H]1O` [Ajmalin], the “therapeutische Index (Q = LD₅₀/ED₂₀)” value in data set [1] is 6,8.
